Measured values as given in PubChem BioAssay (NCI).
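Exposure lasted 48 hours, with cells grown in 96-well plates and compounds tested at five concentrations. TGI is the concentration that stops growth completely.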

Tests used:
Assay in all cases: growth of human tumour cells (NCI), 48 h
UO-31 renal = test system: UO-31 renal
NCI-H522 lung = test system: NCI-H522 lung
OVCAR-4 ovarian = test system: OVCAR-4 ovarian
OVCAR-8 ovarian = test system: OVCAR-8 ovarian
SNB-75 CNS = test system: SNB-75 CNS
HL-60(TB) leukemia = test system: HL-60(TB) leukemia
COLO 205 colon = test system: COLO 205 colon
SF-268 CNS = test system: SF-268 CNS
M14 melanoma = test system: M14 melanoma
HS 578T breast = test system: HS 578T breast
SK-OV-3 ovarian = test system: SK-OV-3 ovarian
MCF7 breast = test system: MCF7 breast
NCI-H23 lung = test system: NCI-H23 lung
HOP-62 NSCLC = test system: HOP-62 NSCLC
BT-549 breast = test system: BT-549 breast
HOP-92 NSCLC = test system: HOP-92 NSCLC
MDA-MB-231 breast = test system: MDA-MB-231 breast
KM12 colon = test system: KM12 colon
A498 renal = test system: A498 renal
OVCAR-5 ovarian = test system: OVCAR-5 ovarian
RXF 393 renal = test system: RXF 393 renal
SK-MEL-28 melanoma = test system: SK-MEL-28 melanoma
RPMI-8226 leukemia = test system: RPMI-8226 leukemia
K-562 leukemia = test system: K-562 leukemia
SK-MEL-5 melanoma = test system: SK-MEL-5 melanoma
ACHN renal = test system: ACHN renal
786-0 renal = test system: 786-0 renal
HCC-2998 colon = test system: HCC-2998 colon
TK-10 renal = test system: TK-10 renal
PC-3 prostate = test system: PC-3 prostate
NCI-H226 lung = test system: NCI-H226 lung
SF-539 CNS = test system: SF-539 CNS
UACC-62 melanoma = test system: UACC-62 melanoma
HT29 colon = test system: HT29 colon
T-47D breast = test system: T-47D breast
A549 NSCLC = test system: A549 NSCLC
SK-MEL-2 melanoma = test system: SK-MEL-2 melanoma
CCRF-CEM leukemia = test system: CCRF-CEM leukemia
SW-620 colon = test system: SW-620 colon
MDA-MB-435 = test system: MDA-MB-435
NCI/ADR-RES ovarian = test system: NCI/ADR-RES ovarian
HCT-116 colon = test system: HCT-116 colon
MOLT-4 leukemia = test system: MOLT-4 leukemia
SF-295 CNS = test system: SF-295 CNS
SR leukemia = test system: SR leukemia
LOX IMVI melanoma = test system: LOX IMVI melanoma
DU-145 prostate = test system: DU-145 prostate
SNB-19 CNS = test system: SNB-19 CNS
CAKI-1 renal = test system: CAKI-1 renal
HCT-15 colon = test system: HCT-15 colon
OVCAR-3 ovarian = test system: OVCAR-3 ovarian
UACC-257 melanoma = test system: UACC-257 melanoma
EKVX NSCLC = test system: EKVX NSCLC
U251 CNS = test system: U251 CNS
IGROV1 ovarian = test system: IGROV1 ovarian
SN12C renal = test system: SN12C renal

## Oc1ccc2c(c1)-c1c(c3cc(O)ccc3n1CCN1CCOCC1)CC2
UO-31 renal
  TGI: 57.9 µM
NCI-H522 lung
  TGI: 40.4 µM
OVCAR-4 ovarian
  TGI: 67.2 µM
OVCAR-8 ovarian
  TGI: 86.8 µM
SNB-75 CNS
  TGI: 58.5 µM
HL-60(TB) leukemia
  TGI: 49.3 µM
COLO 205 colon
  TGI: 32.2 µM
SF-268 CNS
  TGI: > 100 µM
M14 melanoma
  TGI: 50.1 µM
HS 578T breast
  TGI: > 100 µM
SK-OV-3 ovarian
  TGI: 81.2 µM
MCF7 breast
  TGI: 57.8 µM
NCI-H23 lung
  TGI: 73.5 µM
HOP-62 NSCLC
  TGI: 72.7 µM
BT-549 breast
  TGI: 38.2 µM
HOP-92 NSCLC
  TGI: > 100 µM
MDA-MB-231 breast
  TGI: 44.1 µM
KM12 colon
  TGI: > 100 µM
A498 renal
  TGI: 60 µM
OVCAR-5 ovarian
  TGI: > 100 µM
RXF 393 renal
  TGI: 75.8 µM
SK-MEL-28 melanoma
  TGI: 61.9 µM
RPMI-8226 leukemia
  TGI: > 100 µM
K-562 leukemia
  TGI: 41 µM
SK-MEL-5 melanoma
  TGI: 30.6 µM
ACHN renal
  TGI: > 100 µM
786-0 renal
  TGI: 53.3 µM
HCC-2998 colon
  TGI: 32.6 µM
TK-10 renal
  TGI: > 100 µM
PC-3 prostate
  TGI: 54.4 µM
NCI-H226 lung
  TGI: 41.4 µM
SF-539 CNS
  TGI: 76 µM
UACC-62 melanoma
  TGI: 32.9 µM
HT29 colon
  TGI: 59.8 µM
T-47D breast
  TGI: > 100 µM
A549 NSCLC
  TGI: > 100 µM
SK-MEL-2 melanoma
  TGI: 37.7 µM
CCRF-CEM leukemia
  TGI: 68.7 µM
SW-620 colon
  TGI: 71.2 µM
MDA-MB-435
  TGI: 48.8 µM
NCI/ADR-RES ovarian
  TGI: 73.9 µM
HCT-116 colon
  TGI: 44.8 µM
MOLT-4 leukemia
  TGI: 60.4 µM
SF-295 CNS
  TGI: 47.2 µM
SR leukemia
  TGI: 61.8 µM
LOX IMVI melanoma
  TGI: 35.7 µM
DU-145 prostate
  TGI: > 100 µM
SNB-19 CNS
  TGI: > 100 µM
CAKI-1 renal
  TGI: 70.5 µM
HCT-15 colon
  TGI: 45.4 µM
OVCAR-3 ovarian
  TGI: 61.8 µM
UACC-257 melanoma
  TGI: > 100 µM
EKVX NSCLC
  TGI: > 100 µM
U251 CNS
  TGI: 49 µM
IGROV1 ovarian
  TGI: > 100 µM
SN12C renal
  TGI: > 100 µM
